# From patent US6503881B2 (priority 1996, dated 2003)
# Like-named read-outs stand apart in the source and are kept apart here.
# Columns and labels:
# [1] = tested on: inherently resistant microorganisms
# [2] = tested on: microorganisms with acquired resistance; conditions: for FIC: peptide + Tobramycin
# bacterial isolates = conditions: for PIC: with Gentamicin; for FIC: Tobramycin + peptide
# [3] = S. maltophilia SMA018, pair Amikacin / MBI 11B16CN
# [4] = S. maltophilia SMA022, pair Amikacin / MBI 11B16CN
# [5] = S. maltophilia SMA018, pair Amikacin / MBI 21A2
substance,measurement,setting,value
ILRWPWWPWRRKIMILKKAGS [MBI 11B16CN],MIC Alone,"[1]; A baumannii ABI001, pair Amikacin / MBI 11B16CN",32 µg/mL
same,FIC,[1]; [3],0.31
same,MIC Alone,[1]; [3],32 µg/mL
same,MIC in combination,[1]; [3],8 µg/mL
same,FIC,[1]; [4],0.14
same,MIC Alone,[1]; [4],>128 µg/mL
same,MIC in combination,[1]; [4],32 µg/mL
same,MIC,bacteria; A. calcoaceticus AC002,4 µg/mL
same,MIC,bacteria; E. cloacae ECL007,>128 µg/mL
same,MIC,bacteria; E. coli ECO005,16 µg/mL
same,MIC,bacteria; E. faecalis EFS001,2 µg/mL
same,MIC,bacteria; K. pneumoniae KP001,16 µg/mL
same,MIC,bacteria; P. aeruginosa PA004,>128 µg/mL
same,MIC,bacteria; S. aureus SA093,2 µg/mL
same,MIC,bacteria; S. epidermidis SE010,4 µg/mL
same,MIC,bacteria; S. maltophilia SMA002,32 µg/mL
same,MIC,bacteria; S. marcescens SMS003,>128 µg/mL
KKWWRRALQGLKTAGPAIQSVLNK [MBI 21A2],MIC Alone,[1]; [5],16 µg/mL
same,MIC in combination,[1]; [5],8 µg/mL
same,acquired resistance of S. aureus to piperacillin and ciprofloxacin,[2]; antibiotic agents combined with the peptide,overcome
KWKLFIKKLTPAVKKVLLTGLPALIS [MBI 29F1],MIC Alone,"[1]; S. aureus SA025 MRSA, pair Amikacin / MBI 29F1",1 µg/mL
KWKSFIKKLTSAAKKVLTTGLPALIS [MBI 29A3],MIC in combination,"[1]; S. maltophilia SMA063, pair Amikacin / MBI 29A3",4 µg/mL
same,MIC Alone,[1]; SMA036,64 µg/mL
same,MIC Alone,[1]; SMA063,8 µg/mL
same,Peptide MIC Alone,[2]; EFS014,1 µg/mL
same,Peptide MIC Alone,[2]; SA25,1 µg/mL
same,Peptide MI Alone,bacterial isolates; S. aureus SA10 (Ciprofloxacin section),2 µg/mL
same,Peptide MI Alone,bacterial isolates; S. aureus SA25 (Ciprofloxacin section),1 µg/mL
same,PIC,bacterial isolates; S. maltophilia SMA019,0.31
same,PIC,bacterial isolates; S. maltophilia SMA021,0.31
R L A R I V V I R V A R [REWH 53A5CN],Peptide MIC + Tobramycin,[2]; S. maltophilia SMA029,32 µg/mL
same,Tobramycin MIC + Peptide,[2]; S. maltophilia SMA029,0.25 µg/mL
same,Peptide MIC Alone,[2]; S. maltophilia SMA029 (7. Tobramycin),>128 µg/mL
same,Peptide MIC + Tobramycin,[2]; S. maltophilia SMA030,32 µg/mL
same,Tobramycin MIC + Peptide,[2]; S. maltophilia SMA030,0.25 µg/mL
same,Peptide MIC Alone,[2]; S. maltophilia SMA030 (7. Tobramycin),>128 µg/mL
same,FIC,[2]; S. maltophilia SMA029,0.13
same,FIC,[2]; S. maltophilia SMA030,0.13
same,Peptide MIC + Tobramycin,bacterial isolates; S. aureus SA014 MRSA,8 µg/mL
same,Peptide MIC Alone,bacterial isolates; S. aureus SA014 MRSA,16 µg/mL
same,Tobramycin MIC + Peptide,bacterial isolates; S. aureus SA014 MRSA,0.125 µg/mL
same,Peptide MIC + Tobramycin,bacterial isolates; S. maltophilia SMA029,16 µg/mL
same,Peptide MIC Alone,bacterial isolates; S. maltophilia SMA029,>128 µg/mL
same,Tobramycin MIC + Peptide,bacterial isolates; S. maltophilia SMA029,4 µg/mL
same,Peptide MIC + Tobramycin,bacterial isolates; S. maltophilia SMA030,32 µg/mL
same,Peptide MIC Alone,bacterial isolates; S. maltophilia SMA030,>128 µg/mL
same,Tobramycin MIC + Peptide,bacterial isolates; S. maltophilia SMA030,0.25 µg/mL
same,FIC,bacterial isolates; S. aureus SA014 MRSA,0.50
same,FIC,bacterial isolates; S. maltophilia SMA029,0.08
same,FIC,bacterial isolates; S. maltophilia SMA030,0.13
Teicoplanin [reference compound],MIC Alone,"[1]; E. gallinarum 97046 VanC, pair Teicoplanin / MBI 26",1 µg/mL
same,MIC Alone,"[1]; E. gallinarum 97047 VanC, pair Teicoplanin / MBI 26",8 µg/mL
same,MIC Alone,"[1]; E. gallinarum 97049 VanC, pair Teicoplanin / MBI 26",2 µg/mL
